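Where inhibition never reached the appropriate level, the endpoint shown equals the highest concentration tested. Otherwise, values were interpolated linearly from a five-concentration, 48-hour dose response in 96-well plates. TGI denotes the concentration required for complete inhibition of growth.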
Tests used:
Test in all cases: NCI-60 cell line screen, 48 h
[1] = test system: HCT-116 colon
[2] = test system: HOP-92 NSCLC
[3] = test system: SR leukemia
[4] = test system: SW-620 colon
[5] = test system: NCI-H522 lung
[6] = test system: CCRF-CEM leukemia
[7] = test system: XF 498 CNS
[8] = test system: NCI-H226 lung
[9] = test system: CAKI-1 renal
[10] = test system: M19-MEL melanoma
[11] = test system: SK-OV-3 ovarian
[12] = test system: UACC-257 melanoma
[13] = test system: SF-539 CNS
[14] = test system: TK-10 renal
[15] = test system: K-562 leukemia
[16] = test system: A498 renal
[17] = test system: ACHN renal
[18] = test system: HOP-18 NSCLC
[19] = test system: RPMI-8226 leukemia
[20] = test system: HCC-2998 colon
[21] = test system: DLD-1 colon
[22] = test system: COLO 205 colon
[23] = test system: MOLT-4 leukemia
[24] = test system: SN12C renal
[25] = test system: A549 NSCLC
[26] = test system: KM12 colon
[27] = test system: M14 melanoma
[28] = test system: NCI-H23 lung
[29] = test system: LXFL 529 NSCLC
[30] = test system: SNB-75 CNS
[31] = test system: HT29 colon
[32] = test system: EKVX NSCLC
[33] = test system: 786-0 renal
[34] = test system: OVCAR-8 ovarian
[35] = test system: SK-MEL-5 melanoma
[36] = test system: LOX IMVI melanoma
[37] = test system: UACC-62 melanoma
[38] = test system: SF-268 CNS
[39] = test system: NCI-H460 lung
[40] = test system: IGROV1 ovarian
[41] = test system: SK-MEL-28 melanoma
[42] = test system: SF-295 CNS
[43] = test system: SK-MEL-2 melanoma
[44] = test system: MALME-3M melanoma
[45] = test system: SNB-78 CNS
[46] = test system: HCT-15 colon
[47] = test system: OVCAR-5 ovarian
[48] = test system: RXF-631 renal
[49] = test system: HL-60(TB) leukemia
[50] = test system: DMS 114 small cell lung
[51] = test system: OVCAR-4 ovarian
[52] = test system: U251 CNS
[53] = test system: UO-31 renal

Measured: TGI

N#C/C(=C/c1ccco1)C(=O)c1ccccc1
> 100 µM: [1] | [2] | [3] | [4] | [5] | [6] | [7] | [8] | [9] | [10] | [11] | [12] | [13] | [14] | [15] | [16] | [17] | [18] | [19] | [20] | [21] | [22] | [23] | [24] | [25] | [26] | [27] | [28] | [29] | [30] | [31] | [32] | [33] | [34] | [35] | [36] | [37] | [38] | [39] | [40] | [41] | [42] | [43] | [44] | [45] | [46] | [47] | [48] | [49] | [50] | [51] | [52] | [53]
